These results are taken from patent publication US20220265770A1, “TREATING NEURODEGENERATIVE DISEASES WITH PROGRANULIN” (NEURODYN, INC., priority 2008, published 2022).

Data set [1] relates to caudal primary motor neurons of zebrafish embryos. The experiment in a line: Zebrafish ventral primary motor axon/nerve growth (znp1 immunostaining). Type of data set: in vivo. The text has this: During the first day of zebrafish development, neuromuscular connections are restricted to the three primary motoneurons (CaP, MiP and RoP) per spinal cord hemisegment where they innervate three myotome areas that ultimately develop into body wall muscle. During the first the 24 hpf CaP axons project to establish the common pathway. This is the developmental period encompassed in FIGS. 27 and 28.
Development of ventral primary neurons were examined in whole mount embryos at 26-28 hpf and visualized by immunostaining with znp1 monoclonal antibody that labels primary motor neurons.
There is reduced incidence (P<0.001) of truncated neurons (FIG. 27, Panel D, white arrows) together with increased incidence (P<0.001) of early and late branching (FIG. 27, Panel E, white arrowheads) as shown in Table 2. Data sets were accumulated from 50 embryos (WT, progranulin MO, progranulin MO plus mRNA).
Fish husbandry: Wild type zebrafish were purchased from Aquatica Tropicals (Florida) and maintained on a 14 h/10 h light/dark cycle at 28.5° C. in a laboratory aquarium (Allentown Caging Equipment Co. Inc., Allentown, N.J.). Fish were fed twice daily. In the late afternoon of the day before eggs are required, fish were transferred to a net positioned towards the top of a holding tank and covered. In the morning, after the light cycle begins and spawning has stopped, the eggs that have fallen through the net were collected from the bottom of the tank. Embryos to be used for developmental studies were collected and staged by hours post fertilization (hpf). […]
Microinjection of Pgrn mRNA: For Pgrn mRNA over-expression and rescue experiments the vector was generated as follows: The full-length progranulin-a sequence was purchased from RZPD (Berlin, Germany) as clone UCDMp574E2318Q2 and subcloned into pcDNA3.1-V5/His vector (Invitrogen, Carlsbad, Calif.) using a forward primer that overlapped with the starter AUG a reverse primer that read through the termination codon. […]

The subject of data set [2] is NSC-34 cells. The experiment in a line: NSC-34 proliferation/survival with granulin epithelin modules (CyQUANT NF). Type of data set: cell-based. The note with it: 50 or 100 ng/ml, 13 days, RPMI without serum. As to the method:
NSC 34 cells (5000 cell/well) were plated in 96 well plates using 100 ul of DMEM/10% FBS. The following day, the medium was removed and replaced with 100 ul of RPMI (without serum) containing: 0, 50 or 100 ng/ml of grn D or grn F. Cultures were incubated for 13 days following which cell proliferation/survival was determined using the CyQUANT® NF (kit #C35006) assay.
The CyQUANT® NF assay is based on measurement of cellular DNA content via fluorescent dye binding. The extent of proliferation/survival is determined by comparing fluorescence intensity for NSC-34 cells treated with GEMs (50 and 100 ng) relative to untreated controls (Ong).
As per the manufacturers instructions, the protocol included aspiration of growth medium, replacement with 100 ul of dye binding solution per well, incubation for 30 minutes following which the fluorescence intensity of each sample was measured using a fluorescence microplate reader with excitation at ˜485 nm and emission detection at ˜530 nm (FIG. 22). The immortalized motor neuron cell line (NSC-34) responded to incubation with grn F and grn D with either proliferation/survival (grn F) or no effect (grn D) similar to the response of extra neuronal cells incubated in the presence of these GEM's (described in: Tolkatchev D. et al., Protein Sci. 17:711-724, 2008).

[3] abbreviates: Table 2, average number of motor axon/nerve defects per affected side, n=50, 10 ng PgrnA MO, 100 pg mRNA, 26-28 hpf.

Turning to “PGRN-MO2: morpholino to 5′UTR of zebrafish pgrn-a, 5′-GAGCAGGTGGATTTGTGAACAGCGG-3′ (all phosphorodiamidate morpholino (PMO))”, in data set [1] (setting [3]), the Branching is listed as 1.0 ± 0.19*c and the Truncation is 3.02 ± 0.31***a. Also, the “primary motor neuron phenotype” value in data set [1] (whole mount embryos 26-28 hpf, znp1) is recorded as “range of morphant phenotypes”.

B1: grn D: granulin epithelin module, SEQ ID NO: 10, His-tagged (protein)
chain: AMDIGCDQHTSCPVGQTCCPSLGGSWACCQLPHAVCCEDRQHCCPAGYTCNVKARSCEKLAAALEHHHHHH
modifications: His tag
Regarding B1, the “cell proliferation/survival (CyQUANT NF fluorescence)” value in data set [2] is given as “no effect”.
